This is an account of results in US8987314B2, “Amide, urea or sulfone amide linked benzothiazole inhibitors of endothelial lipase” (Bristol-Myers Squibb Company, priority 2012, dated 2015).

Assay [1] deals with Endothelial lipase (EL) (Homo sapiens (Human), UniProt Q9Y5X9). As to the kind of experiment: EL assay: endothelial lipase activity with fluorescent substrate A10070 in DMPG vesicles. The class given is biochemical. The procedure, abridged: (§1)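 EL from conditioned medium of HT-1080 cells engineered to overexpress endogenous EL; HL partially purified from conditioned medium of HL-overexpressing COS cells. Enzyme preincubated with compound 30 min at 37° C in 50 mM HEPES pH 8.0, 50 mM NaCl, 1 mM CaCl2; DMPG vesicles carrying FRET substrate (0.11 mole fraction) then added.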

Assay [2] addresses hepatic lipase (HL) (Homo sapiens (Human), UniProt P11150). As to the kind of experiment: HL assay: hepatic lipase activity with fluorescent substrate A10070 in DMPG vesicles. The class given is biochemical. The method in brief: as §1

Like-named read-outs stand apart in the source and are kept apart here.

Sequence of Endothelial lipase (EL) (Q9Y5X9 21-500): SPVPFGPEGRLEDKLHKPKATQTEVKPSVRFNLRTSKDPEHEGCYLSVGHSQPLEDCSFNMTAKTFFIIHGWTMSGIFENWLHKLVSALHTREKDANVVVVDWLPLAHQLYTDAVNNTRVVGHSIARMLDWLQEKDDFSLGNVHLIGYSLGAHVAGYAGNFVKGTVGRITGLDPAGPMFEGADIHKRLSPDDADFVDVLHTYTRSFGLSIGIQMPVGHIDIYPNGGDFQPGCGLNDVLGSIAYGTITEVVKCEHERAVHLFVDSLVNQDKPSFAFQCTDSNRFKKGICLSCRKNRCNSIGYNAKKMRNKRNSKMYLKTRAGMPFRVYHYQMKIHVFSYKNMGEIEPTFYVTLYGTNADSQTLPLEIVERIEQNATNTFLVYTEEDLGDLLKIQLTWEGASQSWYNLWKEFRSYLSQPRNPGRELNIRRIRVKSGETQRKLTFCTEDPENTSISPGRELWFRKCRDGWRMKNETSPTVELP
Sequence of hepatic lipase (HL) (P11150 23-499, species assumed): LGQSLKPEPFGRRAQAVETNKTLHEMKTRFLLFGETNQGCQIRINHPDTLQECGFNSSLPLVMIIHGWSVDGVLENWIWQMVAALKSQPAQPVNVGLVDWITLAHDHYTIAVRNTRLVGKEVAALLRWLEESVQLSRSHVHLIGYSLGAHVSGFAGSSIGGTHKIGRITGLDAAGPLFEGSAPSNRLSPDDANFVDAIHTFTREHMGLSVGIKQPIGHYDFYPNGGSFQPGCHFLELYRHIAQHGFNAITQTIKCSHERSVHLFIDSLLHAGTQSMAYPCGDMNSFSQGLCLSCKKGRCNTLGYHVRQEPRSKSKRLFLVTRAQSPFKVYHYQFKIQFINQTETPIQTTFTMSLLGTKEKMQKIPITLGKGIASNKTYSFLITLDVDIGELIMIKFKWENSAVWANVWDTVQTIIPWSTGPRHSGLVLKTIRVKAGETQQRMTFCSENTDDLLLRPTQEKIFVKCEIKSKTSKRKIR

With `CS(=O)(=O)C(C(=O)NCCS(N)(=O)=O)c1nc2ccc(-c3ccc4c(c3)OCO4)cc2s1` (centres unmarked) [Example B38, 2-(6-(1,3-benzodioxol-5-yl)-1,3-benzothiazol-2-yl)-2-(methylsulfonyl)-N-(2-sulfamoylethyl)acetamide], the IC50 in assay [1] and in assay [2] was < 10 nM in each case.

`CC(C)(O)Cn1ccc(-c2ccc3nc(C(C(=O)NCCS(N)(=O)=O)S(=O)(=O)Cc4ccc(F)cc4)sc3c2)cc1=O` (centres unmarked) [Example B363, 2-[(4-fluorophenyl)meth-anesulfonyl]-2-{6-[1-(2-hydroxy-2-methylpropyl)-2-oxo-1,2-dihydropyridin-4-yl]-1,3-benzothiazol-2-yl}-N-(2-sulfamoylethyl)acetamide]: the concentration for half-maximal inhibition (IC50) – broadly, the point on the concentration scale where inhibition reaches its midpoint – was determined as 11.6 nM in assay [1] and 10000 nM in assay [2].

As for `CS(=O)(=O)C(C(=O)NCCS(N)(=O)=O)c1nc2ccc(-c3ccc(OCCN4CCCCC4)cc3)cc2s1` (centres unmarked) [Example B42, 2-(methylsulfonyl)-2-(6-(4-(2-(1-piperidinyl)ethoxy)phen-yl)-1,3-benzothiazol-2-yl)-N-(2-sulfamoylethyl)a-cetamide], the values for the concentration for half-maximal inhibition (IC50) in assay [1] and in assay [2] were < 10 nM and 10 nM, respectively.

As to `CC(C)(C)OC(=O)n1ccc(-c2ccc3nc(C(C(=O)NCCS(N)(=O)=O)S(C)(=O)=O)sc3c2)c1` (centres unmarked) [Example B220, tert-butyl 3-(2-{methanesulfonyl[(2-sulfa-moylethyl)carbamoyl]meth-yl}-1,3-benzothiazol-6-yl)-1H-pyrrole-1-carboxylatc], the IC50 is 51.4 nM in assay [1] and 2.8 nM in assay [2].

With `NS(=O)(=O)CCNC(=O)C(c1nc2cc(-c3ccc(F)nc3)ccc2s1)S(=O)(=O)Cc1ccc(OC(F)(F)F)cc1` (centres unmarked) [Example B309, 2-[5-(6-fluoropyridin-3-yl)-1,3-benzothiazol-2-yl]-N-(2-sulfamoylethyl)-2-{[4-(trifluoromethoxy)phen-yl]methanesulfonyl}a-cetamide], the concentration for half-maximal inhibition (IC50) in assay [1] was determined as 0.5 nM; in assay [2], 67 nM.

With `CS(=O)(=O)C(C(=O)NCCS(N)(=O)=O)c1nc2cc(-c3ccccc3F)ccc2s1` (centres unmarked) [Example B352, 2-[5-(2-fluorophenyl)-1,3-benzothiazol-2-yl]-2-methanesulfonyl-N-(2-sulfamoylethyl)acetamide], the IC50 in assay [1] stood at 0.8 nM; in assay [2] it was 13.7 nM.

For the compound `COCCn1cc(-c2ccc3sc(C(C(=O)NCCS(N)(=O)=O)S(C)(=O)=O)nc3c2)cn1` (centres unmarked) [Example B90, 2-(5-(1-(2-methoxyethyl)-1H-pyrazol-4-yl)-1,3-benzothiazol-2-yl)-2-(methylsulfonyl)-N-(2-sulfamoylethyl)acetamide], the concentration for half-maximal inhibition (IC50) in assay [1] is < 10 nM; in assay [2], 100 nM.

With `Cc1cc2nc(C(C(=O)NCCS(N)(=O)=O)S(=O)(=O)Cc3ccccc3)sc2cc1-c1ccc(C(=O)N2CC(C)(O)C2)cc1` (centres unmarked) [Example B347, 2-{6-[4-(3-hydroxy-3-methylazetidine-1-carbonyl)phenyl]-5-methyl-1,3-benzothiazol-2-yl}-2-phenylmethane-sulfonyl-N-(2-sulfamoylethyl)acetamide], the IC50 in assay [1] turned out to be 3.4 nM; in assay [2] it was 580 nM.

On to `NS(=O)(=O)CCNC(=O)C(c1nc2ccc(-c3cnn(CCN4CCOCC4)c3)cc2s1)S(=O)(=O)Cc1ccccc1` (centres unmarked) [Example B122, 2-(benzylsulfonyl)-2-(6-{1-[2-(4-morpholinyl)ethyl]-1H-pyrazol-4-yl}-1,3-benzothiazol-2-yl)-N-(2-sulfamoylethyl)acetamide], for which the 50% inhibitory concentration (IC50) came out at 44 nM in assay [1] and 631 nM in assay [2].

On to `CC(C)CS(=O)(=O)C(C(=O)NCCS(N)(=O)=O)c1nc2ccc(-c3ccc(C(=O)N4CCOCC4)cc3)cc2s1` (centres unmarked) [Example B109, 2-(isobutylsulfonyl)-2-(6-(4-(4-morpholinyl-carbonyl)phenyl)-1,3-benzothiazol-2-yl)-N-(2-sulfamoylethyl)acetamide], for which the IC50 in assay [1] is < 10 nM; in assay [2], 191 nM.

For `COCCOC(=O)Nc1ccc(-c2ccc3nc(C(C(=O)NCCS(N)(=O)=O)S(C)(=O)=O)sc3c2)cc1` (centres unmarked) [Example B64, 2-methoxyethyl(4-(2-(1-(methylsulfonyl)-2-oxo-2-((2-sulfamoylethyl)amino)eth-yl)-1,3-benzothiazol-6-yl)phenyl)carbamate], the figures for the 50% inhibitory concentration (IC50) in assay [1] and in assay [2] were 0.5 nM and 1.9 nM, respectively.

On to `CS(=O)(=O)C(C(=O)NCCS(N)(=O)=O)c1nc2ccc(-c3cccc(N4CCCC4)c3)cc2s1` (centres unmarked) [Example B62, 2-(methylsulfonyl)-2-(6-(3-(1-pyrrolidinyl)phenyl)-1,3-benzothiazol-2-yl)-N-(2-sulfamoylethyl)a-cetamide], for which the half-inhibitory concentration (IC50) amounted to 1.2 nM in assay [1] and 1 nM in assay [2].

As for `CS(=O)(=O)C(C(=O)NCCS(N)(=O)=O)c1nc2ccc(-c3ccc(C(=O)O)cc3)cc2s1` (centres unmarked) [Example B173, 4-(2-(1-(Methylsulfonyl)-2-oxo-2-(2-sulfamoylethylamino)ethyl)benzo[d]thiazol-6-yl)benzoic acid], the IC50 in assay [1] (EL from conditioned media of HT-1080 cells, 30 min incubation with compound at 37° C., A10070/DMPG vesicles) was < 10 nM; in assay [2] (HL partially purified from conditioned media of COS cells, 30 min incubation with compound at 37° C., A10070/DMPG vesicles) it was 274 nM.

For `CS(=O)(=O)C(C(=O)NCCS(N)(=O)=O)c1nc2ccc(-c3ccc(C(=O)N4CCOCC4)cc3)cc2s1` (centres unmarked) [Example B101, 2-(methylsulfonyl)-2-(6-(4-(4-morpholinylcarbonyl)phen-yl)-1,3-benzothiazol-2-yl)-N-(2-sulfamoylethyl)a-cetamide], the half-maximal inhibitory concentration (IC50) was < 10 nM in assay [1] and 63 nM in assay [2].

As to `CS(=O)(=O)C(C(=O)NCCS(N)(=O)=O)c1nc2ccc(-c3ccnc(O)c3F)cc2s1` (centres unmarked) [Example B193, 2-[6-(3-fluoro-2-hydroxy-4-pyridinyl)-1,3-benzothiazol-2-yl]-2-(methylsulfonyl)-N-(2-sulfamoylethyl)acetamide], the IC50 stood at 0.5 nM in assay [1] and 238 nM in assay [2].

Consider `NS(=O)(=O)CCNC(=O)C(c1nc2ccc(-c3ccccc3)cc2s1)S(=O)(=O)CC1CC1` (centres unmarked) [Example B118, 2-((cyclopropylmethyl)sul-fonyl)-2-(6-phenyl-1,3-benzothiazol-2-yl)-N-(2-sulfamoylethyl)acetamide], for which the IC50 in assay [1] is < 10 nM; in assay [2] it was 10 nM.

Consider `COCCOc1ccc(-c2ccc3sc(C(C(=O)NCCS(N)(=O)=O)S(C)(=O)=O)nc3c2)cc1` (centres unmarked) [Example B370, 2-methanesulfonyl-2-{5-[4-(2-methoxyethoxy)phen-yl]-1,3-benzothiazol-2-yl}-N-(2-sulfamoylethyl)a-cetamide], for which the IC50 is 1.8 nM in assay [1] and 15.5 nM in assay [2].

On to `Cc1cc2nc(C(C(=O)NCCS(N)(=O)=O)S(C)(=O)=O)sc2cc1-c1ccc(C(=O)N2CCOCC2)cc1` (centres unmarked) [Example B350, 2-methanesulfonyl-2-{5-methyl-6-[4-(morpholine-4-carbonyl)phenyl]-1,3-benzothiazol-2-yl}-N-(2-sulfamoylethyl)acetamide], for which the 50% inhibitory concentration (IC50) in assay [1] was determined as 3.2 nM; in assay [2], 90.5 nM.

Consider `NS(=O)(=O)CCNC(=O)C(c1nc2cc(F)c(-c3ccccc3)cc2s1)S(=O)(=O)CCN1CCOCC1` (centres unmarked) [Example B160, 2-(5-fluoro-6-phenyl-1,3-benzothiazol-2-yl)-2-((2-(4-morpholinyl)ethyl)sul-fonyl)-N-(2-sulfamoylethyl)acetamide], for which the half-inhibitory concentration (IC50) was < 10 nM in assay [1] and 20 nM in assay [2].
